Results: PubChem BioAssay AID292 (DTP/NCI, 2004)
“And” between values parts separate entries of the source, which are not always exact repeats. Equal entries are not always repeated. Inconclusive results and toxic doses are left out.

Tested on: B6C3F1 mice, ip Sarcoma M5076, median survival T/C
Test: NCI In Vivo Anticancer Drug Screen. Data for tumor model Sarcoma M5076 (intraperitoneal) in B6C3F1 mice
Settings: endpoint: median survival time, schedule: Q04DX004 (ip), higher = longer survival
How it was run: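 Mice carrying the transplanted tumour received compound treatment. Survival was recorded, and each value is the treated-group measurement divided by that of the vehicle-dosed control group.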

[1] = dose: 37.5 mg/kg/injection, vehicle: saline with Tween-80
[2] = dose: 75.0 mg/kg/injection, vehicle: saline with Tween-80
[3] = dose: 150.0 mg/kg/injection, vehicle: saline with Tween-80
[4] = dose: 300.0 mg/kg/injection, vehicle: saline with Tween-80
[5] = dose: 600.0 mg/kg/injection, vehicle: saline with Tween-80
[6] = dose: 12.5 mg/kg/injection, vehicle: Klucel (hydroxypropylcellulose) (HPC)
[7] = dose: 25.0 mg/kg/injection, vehicle: Klucel (hydroxypropylcellulose) (HPC)
[8] = dose: 50.0 mg/kg/injection, vehicle: Klucel (hydroxypropylcellulose) (HPC)
[9] = dose: 100.0 mg/kg/injection, vehicle: Klucel (hydroxypropylcellulose) (HPC)
[10] = dose: 50.0 mg/kg/injection, vehicle: saline
[11] = dose: 100.0 mg/kg/injection, vehicle: saline
[12] = dose: 200.0 mg/kg/injection, vehicle: saline
[13] = dose: 400.0 mg/kg/injection, vehicle: saline
[14] = dose: 75.0 mg/kg/injection, vehicle: Klucel (hydroxypropylcellulose) (HPC)
[15] = dose: 150.0 mg/kg/injection, vehicle: Klucel (hydroxypropylcellulose) (HPC)
[16] = dose: 300.0 mg/kg/injection, vehicle: Klucel (hydroxypropylcellulose) (HPC)
[17] = dose: 600.0 mg/kg/injection, vehicle: Klucel (hydroxypropylcellulose) (HPC)

## O=C(NNC(=S)NC1OC(CO)C(O)C(O)C1O)c1cccc(C(=O)NNC(=S)NC2OC(CO)C(O)C(O)C2O)n1 (stereo not drawn)
[1]
  T/C: 97 % of control
dose: 37.5 mg/kg/injection, vehicle: saline
  T/C: 101 % of control
[2]
  T/C: 98 % of control
dose: 75.0 mg/kg/injection, vehicle: saline
  T/C: 96 % of control
[3]
  T/C: 98 % of control
dose: 150.0 mg/kg/injection, vehicle: saline
  T/C: 101 % of control
[4]
  T/C: 99 % of control
dose: 300.0 mg/kg/injection, vehicle: saline
  T/C: 96 % of control
[5]
  T/C: 98 % of control
dose: 600.0 mg/kg/injection, vehicle: saline
  T/C: 103 % of control

## O=C([O][Bi]([c]1ccccc1)[c]1ccccc1)c1ccccc1
dose: 6.25 mg/kg/injection, vehicle: Klucel (hydroxypropylcellulose) (HPC)
  T/C: 96 % of control
[6]
  T/C: 111 % of control
[7]
  T/C: 101 % of control
[8]
  T/C: 95 % of control
[9]
  T/C: 91 % of control

## Cc1nn(-c2ccccn2)c2ncnc(N)c12
[1]
  T/C: 106 % of control
[2]
  T/C: 102 % of control
[3]
  T/C: 86 % of control

## Cc1c(O)/c(=C\O)c2nc3c(=O)ccc(C(=O)NCCN(C)C)c3[nH]c2c1=O
dose: 25.0 mg/kg/injection, vehicle: water
  T/C: 100 % of control
dose: 50.0 mg/kg/injection, vehicle: water
  T/C: 107 % of control
dose: 100.0 mg/kg/injection, vehicle: water
  T/C: 107 % of control
dose: 200.0 mg/kg/injection, vehicle: water
  T/C: 112 % of control

## CC1C(C#N)C(=O)NC(=O)C1C#N (stereo not drawn)
[10]
  T/C: 100 % of control
[11]
  T/C: 104 % of control
[12]
  T/C: 97 % of control
[13]
  T/C: 97 % of control
dose: 800.0 mg/kg/injection, vehicle: saline
  T/C: 102 % of control

## C[n+]1c2cc(N)ccc2cc2ccc(N)cc21
dose: 1.5 mg/kg/injection, vehicle: saline
  T/C: 101 % of control
dose: 3.0 mg/kg/injection, vehicle: saline
  T/C: 94 % of control
dose: 6.0 mg/kg/injection, vehicle: saline
  T/C: 106 % of control and 118 % of control and 120 % of control
dose: 12.0 mg/kg/injection, vehicle: saline
  T/C: 116 % of control and 123 % of control
dose: 24.0 mg/kg/injection, vehicle: saline
  T/C: 112 % of control

## NC(=O)c1c[nH]n(C2OC(CO)C(O)C2O)c1=O (stereo not drawn)
dose: 12.5 mg/kg/injection, vehicle: saline
  T/C: 99 % of control
dose: 25.0 mg/kg/injection, vehicle: saline
  T/C: 98 % of control
[10]
  T/C: 105 % of control
[11]
  T/C: 98 % of control
[12]
  T/C: 101 % of control

## Cn1cnc([N+](=O)[O-])c1SCC(=O)O
[14]
  T/C: 92 % of control
[15]
  T/C: 101 % of control
[16]
  T/C: 98 % of control
[17]
  T/C: 93 % of control
dose: 1200.0 mg/kg/injection, vehicle: Klucel (hydroxypropylcellulose) (HPC)
  T/C: 92 % of control

## CN(C)N=Nc1ccccc1
[6]
  T/C: 113 % of control
[7]
  T/C: 159 % of control
[8]
  T/C: 187 % of control
[9]
  T/C: 156 % of control

## CN(CN1C(=O)CCC1=O)CN1C(=O)CCC1=O
[10]
  T/C: 92 % of control
[11]
  T/C: 100 % of control
[12]
  T/C: 96 % of control
[13]
  T/C: 116 % of control

## O=C/C(Cl)=C(/Cl)C(=O)O
dose: 6.25 mg/kg/injection, vehicle: saline with Tween-80
  T/C: 92 % of control
dose: 12.5 mg/kg/injection, vehicle: saline with Tween-80
  T/C: 104 % of control and 110 % of control
dose: 25.0 mg/kg/injection, vehicle: saline with Tween-80
  T/C: 109 % of control and 119 % of control

## COC1=CC(=O)C(OC)=C(OC)C1=O
dose: 18.75 mg/kg/injection, vehicle: saline with Tween-80
  T/C: 95 % of control
[1]
  T/C: 95 % of control
[2]
  T/C: 99 % of control
[3]
  T/C: 97 % of control
[4]
  T/C: 93 % of control

## Cc1cc2c(C(C)C)c(O)c(O)c(C=NCCO)c2c(O)c1-c1c(C)cc2c(C(C)C)c(O)c(O)c(C=NCCO)c2c1O
dose: 50.0 mg/kg/injection, vehicle: saline with Tween-80
  T/C: 116 % of control
dose: 86.4 mg/kg/injection, vehicle: saline with Tween-80
  T/C: 120 % of control
dose: 100.0 mg/kg/injection, vehicle: saline with Tween-80
  T/C: 121 % of control
dose: 200.0 mg/kg/injection, vehicle: saline with Tween-80
  T/C: 123 % of control
dose: 240.0 mg/kg/injection, vehicle: saline with Tween-80
  T/C: 150 % of control
dose: 400.0 mg/kg/injection, vehicle: saline with Tween-80
  T/C: 92 % of control and 210 % of control
dose: 800.0 mg/kg/injection, vehicle: saline with Tween-80
  T/C: 180 % of control

## O=C1C=C(N2CC2)C(=O)C(N2CC2)=C1N1CC1
dose: 1.56 micrograms/kg/injection, vehicle: saline
  T/C: 99 % of control
dose: 3.12 micrograms/kg/injection, vehicle: saline
  T/C: 103 % of control
dose: 6.25 micrograms/kg/injection, vehicle: saline
  T/C: 111 % of control
dose: 12.5 micrograms/kg/injection, vehicle: saline
  T/C: 111 % of control
dose: 25.0 micrograms/kg/injection, vehicle: saline
  T/C: 114 % of control

## COc1ccccc1N1C(=O)C(=O)C(C(C)=O)C1=O (stereo not drawn)
dose: 43.75 mg/kg/injection, vehicle: Klucel (hydroxypropylcellulose) (HPC)
  T/C: 115 % of control
dose: 87.5 mg/kg/injection, vehicle: Klucel (hydroxypropylcellulose) (HPC)
  T/C: 98 % of control
dose: 175.0 mg/kg/injection, vehicle: Klucel (hydroxypropylcellulose) (HPC)
  T/C: 100 % of control
dose: 350.0 mg/kg/injection, vehicle: Klucel (hydroxypropylcellulose) (HPC)
  T/C: 98 % of control

## Nc1nc2c(ncn2C2OC(CO)C(O)C2O)c(=O)[nH]1 (stereo not drawn)
[2]
  T/C: 107 % of control
[3]
  T/C: 114 % of control
[4]
  T/C: 114 % of control
[5]
  T/C: 114 % of control
dose: 1200.0 mg/kg/injection, vehicle: saline with Tween-80
  T/C: 109 % of control

## CCOC(=O)/C=C/C(=O)N1CCN(C(=O)/C=C/C(=O)OCC)C(C)C1 (stereo not drawn)
[7]
  T/C: 98 % of control
[8]
  T/C: 107 % of control
[9]
  T/C: 98 % of control
dose: 200.0 mg/kg/injection, vehicle: Klucel (hydroxypropylcellulose) (HPC)
  T/C: 108 % of control
dose: 400.0 mg/kg/injection, vehicle: Klucel (hydroxypropylcellulose) (HPC)
  T/C: 100 % of control

## CCOC(=O)c1cn(C)c2c1C(=O)C(C(=O)OCC)CC(=O)N2 (stereo not drawn)
dose: 31.25 mg/kg/injection, vehicle: saline + Tween-80 + alcohol
  T/C: 100 % of control
dose: 62.5 mg/kg/injection, vehicle: saline + Tween-80 + alcohol
  T/C: 101 % of control
dose: 125.0 mg/kg/injection, vehicle: saline + Tween-80 + alcohol
  T/C: 94 % of control
dose: 250.0 mg/kg/injection, vehicle: saline + Tween-80 + alcohol
  T/C: 92 % of control

## N#CC1C(=O)NC(=S)NC1c1ccc(Cl)c(Cl)c1 (stereo not drawn)
dose: 37.5 mg/kg/injection, vehicle: Klucel (hydroxypropylcellulose) (HPC)
  T/C: 94 % of control
[14]
  T/C: 99 % of control
[15]
  T/C: 97 % of control
[16]
  T/C: 91 % of control
[17]
  T/C: 89 % of control
